System: T. b. rhodesiense STIB900 bloodstream, Alamar blue, 72 h
Experiment: African trypanosome bloodstream form growth inhibition – STIB900 strain, plate reader, dry powder, dose response (AID 651894)

Work on `C[C@@H]1CN([C@@H](C)CO)C(=O)c2cccc(NC(=O)c3ccncc3)c2O[C@H]1CN(C)Cc1ccc(Oc2ccccc2)cc1` yielded an IC50 of 170 nM.
